Measured values from patent US20240067662A1, “KRAS INHIBITORS” (Bristol-Myers Squibb Company, priority 2022, published 2024).

Target: GMPPNP-loaded KRAS G12C (Homo sapiens, UniProt P01116, G12C)
Experiment: KRAS G12C RAF Disruption Assay (HTRF)
Assay type: biochemical
Details: recombinant GMPPNP-loaded KRAS G12C (5 nM), 20 min with compound; GST-RAF1 RBD (9 nM); HTRF signal; read-out: KRASG12C RAF Disruption Assay (IC50)
Summary of the method: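 The read-out is an HTRF 520/495 emission ratio, with IC50 taken from dose-response curves. Compound was first incubated for 20 min at room temperature with active-state KRAS G12C (GMPPNP, 5 nM) in Tris pH 7.5/NaCl/MgCl2/DTT/BSA. RAF1 RBD-GST (9 nM, 20 min) and SA-Tb (0.25 nM, 3 h) were added in turn.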

Compound | IC50
C#Cc1c(F)ccc2cc(O)cc(-c3ncc4c(N5CC6CCC(C5)N6C(=O)/C(F)=C/c5nc(Br)cs5)nc(OC[C@@]56CCCN5C[C@H](F)C6)nc4c3F)c12 [Compound 11, (Z)-3-(4-bromothiazol-2-yl)-1-((JR, 5S)-3-(7-(8-ethynyl-7-fluoro-3-hydroxynaphthalen-1-yl)-8-fluoro-2-(((2R, 7aS)-2-fluorotetrahydro-1H-pyrrolizin-7a(5H)-yl)methoxy)pyrido[4,3-d]pyrimidin-4-yl)-3,8-diazabicyclo[3.2.1]octan-8-yl)-2-fluoroprop-2-en-1-one] | 450 nM
C#Cc1cccc2c(F)ccc(-c3ncc4c(N5CCN(C(=O)/C(F)=C/c6ccccn6)CC5)nc(OC[C@@]56CCCN5C[C@H](F)C6)nc4c3F)c12 [Compound 87, (Z)-1-(4-(7-(8-ethynyl-4-fluoronaphthalen-1-yl)-8-fluoro-2-(((2R, 7aS)-2-fluorotetrahydro-1H-pyrrolizin-7a(5H)-yl)methoxy)pyrido[4,3-d]pyrimidin-4-yl)piperazin-1-yl)-2-fluoro-3-(pyridin-2-yl)prop-2-en-1-one] | 1600 nM
N#CC[C@H]1CN(c2nc(OC[C@@]34CCCN3C[C@H](F)C4)nc3c(F)c(-c4csc5ccccc45)ncc23)CCN1C(=O)/C(F)=C/c1nccs1 [Example 34, 2-((S)-4-(7-(benzo[b]thiophen-3-yl)-8-fluoro-2-(((2R, 7aS)-2-fluorotetrahydro-1H-pyrrolizin-7a(5H)-yl)methoxy)pyrido[4,3-d]pyrimidin-4-yl)-1-((Z)-2-fluoro-3-(thiazol-2-yl)acryloyl)piperazin-2-yl)acetonitrile] | 400 nM
C#Cc1c(F)ccc2cc(O)cc(-c3ncc4c(N5CCN(C(=O)/C(F)=C/c6ccccn6)CC5)nc(OC[C@@]56CCCN5C[C@H](F)C6)nc4c3F)c12 [Example 27, (Z)-1-(4-(7-(8-ethynyl-7-fluoro-3-hydroxynaphthalen-1-yl)-8-fluoro-2-(((2R, 7aS)-2-fluorotetrahydro-1H-pyrrolizin-7a(5H)-yl)methoxy)pyrido[4,3-d]pyrimidin-4-yl)piperazin-1-yl)-2-fluoro-3-(pyridin-2-yl)prop-2-en-1-one] | 3 nM
C#Cc1cccc2cccc(-c3ncc4c(N5CCN(C(=O)/C(F)=C/c6ccccn6)CC5)nc(OC[C@@]56CCCN5C[C@H](F)C6)nc4c3F)c12 [Example 29, (Z)-1-(4-(7-(8-ethynylnaphthalen-1-yl)-8-fluoro-2-(((2R, 7aS)-2-fluorotetrahydro-1H-pyrrolizin-7a(5H)-yl)methoxy)pyrido[4,3-d]pyrimidin-4-yl)piperazin-1-yl)-2-fluoro-3-(pyridin-2-yl)prop-2-en-1-one] | 100 nM
C#Cc1cccc2cccc(-c3ncc4c(N(C)[C@H]5CN(C(=O)/C(F)=C/c6ccccn6)C[C@H]5F)nc(OC[C@@]56CCCN5C[C@H](F)C6)nc4c3F)c12 [Compound 128, (Z)-1-((3S,4R)-3-((7-(8-ethynylnaphthalen-1-yl)-8-fluoro-2-(((2R, 7aS)-2-fluorotetrahydro-1H-pyrrolizin-7a(5H)-yl)methoxy)pyrido[4,3-d]pyrimidin-4-yl)(methyl)amino)-4-fluoropyrrolidin-1-yl)-2-fluoro-3-(pyridin-2-yl)prop-2-en-1-one] | 30 nM
C#Cc1cccc2cccc(-c3ncc4c(N5CCN(C(=O)/C(F)=C/c6ncco6)CC5)nc(OC[C@@]56CCCN5C[C@H](F)C6)nc4c3F)c12 [Compound 124, (Z)-1-(4-(7-(8-ethynylnaphthalen-1-yl)-8-fluoro-2-(((2R, 7aS)-2-fluorotetrahydro-1H-pyrrolizin-7a(5H)-yl)methoxy)pyrido[4,3-d]pyrimidin-4-yl)piperazin-1-yl)-2-fluoro-3-(oxazol-2-yl)prop-2-en-1-one] | 540 nM
Cn1ncc2cccc(-c3ncc4c(N5CCN(C(=O)/C(F)=C/c6nccs6)CC5)nc(OC[C@@]56CCCN5C[C@H](F)C6)nc4c3F)c21 [Example 39, (Z)-2-fluoro-1-(4-(8-fluoro-2-(((2R, 7aS)-2-fluorotetrahydro-1H-pyrrolizin-7a(5H)-yl)methoxy)-7-(I-methyl-1H-indazol-7-yl)pyrido[4,3-d]pyrimidin-4-yl)piperazin-1-yl)-3-(thiazol-2-yl)prop-2-en-1-one] | 5100 nM
N#Cc1c(N)sc2c(F)ccc(-c3ncc4c(N5CCN(C(=O)/C(F)=C/c6ccccn6)CC5)nc(OC[C@@]56CCCN5C[C@H](F)C6)nc4c3F)c12 [Compound 121, 2-amino-7-fluoro-4-(8-fluoro-4-(4-((Z)-2-fluoro-3-(pyridin-2-yl)acryloyl)piperazin-1-yl)-2-(((7aS)-2-fluorotetrahydro-1H-pyrrolizin-7a(5H)-yl)methoxy)pyrido[4,3-d]pyrimidin-7-yl)benzo[b]thiophene-3-carbonitrile] | 8 nM
C#Cc1cccc2cccc(-c3ncc4c(N5CC6(CCN(C(=O)/C(F)=C/c7ncccn7)CC6)C5)nc(OC[C@@]56CCCN5C[C@H](F)C6)nc4c3F)c12 [Compound 92, (Z)-1-(2-(7-(8-ethynylnaphthalen-1-yl)-8-fluoro-2-(((2R, 7aS)-2-fluorotetrahydro-1H-pyrrolizin-7a(5H)-yl)methoxy)pyrido[4,3-d]pyrimidin-4-yl)-2,7-diazaspiro[3.5]nonan-7-yl)-2-fluoro-3-(pyrimidin-2-yl)prop-2-en-1-one] | 24000 nM
N#CC[C@H]1CN(c2nc(OC[C@@]34CCCN3C[C@H](F)C4)nc3c(F)c(-c4cc(Cl)ccc4C(F)(F)F)ncc23)CCN1C(=O)/C(F)=C/c1nccs1 [Example 46, 2-((S)-1-((Z)-2-fluoro-3-(thiazol-2-yl)acryloyl)-4-(8-fluoro-7-(5-chloro-2-(trifluoromethyl)phenyl)-2-(((2R, 7aS)-2-fluorotetrahydro-1H-pyrrolizin-7a(5H)-yl)methoxy)pyrido[4,3-d]pyrimidin-4-yl)piperazin-2-yl)acetonitrile] | 390 nM
C#Cc1c(F)ccc2cccc(-c3ncc4c(N5CCN(C(=O)/C(F)=C/c6nccs6)CC5)nc(OC[C@@]56CCCN5C[C@H](F)C6)nc4c3F)c12 [Example 53, (Z)-1-(4-(7-(8-ethynyl-7-fluoronaphthalen-1-yl)-8-fluoro-2-(((2R, 7aS)-2-fluorotetrahydro-1H-pyrrolizin-7a(5H)-yl)methoxy)pyrido[4,3-d]pyrimidin-4-yl)piperazin-1-yl)-2-fluoro-3-(thiazol-2-yl)prop-2-en-1-one] | 44 nM
2-((S)-4-(8-fluoro-2-(((S)-1-methylpyrrolidin-2-yl)methoxy)-7-(naphthalen-1-yl)pyrido[4,3-d]pyrimidin-4-yl)-1-((Z)-2-fluoro-3-(pyridin-2-yl)acryloyl)piperazin-2-yl)acetonitrile [Compound 21B] | 330 nM
C#Cc1cccc2cccc(-c3ncc4c(N5CCN(C(=O)/C(F)=C/c6ccccn6)CC5)nc(OC[C@@H]5CCCN5C)nc4c3F)c12 [Example 25, (S,Z)-1-(4-(7-(8-ethynylnaphthalen-1-yl)-8-fluoro-2-((1-methylpyrrolidin-2-yl)methoxy)pyrido[4,3-d]pyrimidin-4-yl)piperazin-1-yl)-2-fluoro-3-(pyridin-2-yl)prop-2-en-1-one] | 290 nM
N#Cc1cccc2cccc(-c3ncc4c(N5CCN(C(=O)/C(F)=C/c6ccccn6)CC5)nc(OC[C@@]56CCCN5C[C@H](F)C6)nc4c3F)c12 [Example 49, 8-(8-fluoro-4-(4-((Z)-2-fluoro-3-(pyridin-2-yl)acryloyl)piperazin-1-yl)-2-(((2R, 7aS)-2-fluorotetrahydro-1H-pyrrolizin-7a(5H)-yl)methoxy)pyrido[4,3-d]pyrimidin-7yl)-1-naphthonitrile] | 800 nM
N#CC[C@H]1CN(c2nc(OC[C@@]34CCCN3C[C@H](F)C4)nc3c(F)c(-c4ccccc4C4CCC4)ncc23)CCN1C(=O)/C(F)=C/c1nccs1 [Compound 82, 2-((2S)-4-(7-(2-cyclobutylphenyl)-8-fluoro-2-(((2R, 7aS)-2-fluorotetrahydro-1H-pyrrolizin-7a(5H)-yl)methoxy)pyrido[4,3-d]pyrimidin-4-yl)-1-((Z)-2-fluoro-3-(thiazol-2-yl)acryloyl)piperazin-2-yl)acetonitrile] | 62 nM
C#Cc1c(F)ccc2cccc(-c3ncc4c(N5CCN(C(=O)/C(F)=C/c6ccccn6)CC5)nc(OC[C@@]56CCCN5C[C@H](F)C6)nc4c3F)c12 [Example 31, (Z)-1-(4-(7-(8-ethynyl-7-fluoronaphthalen-1-yl)-8-fluoro-2-(((2R, 7aS)-2-fluorotetrahydro-1H-pyrrolizin-7a(5H)-yl)methoxy)pyrido[4,3-d]pyrimidin-4-yl)piperazin-1-yl)-2-fluoro-3-(pyridin-2-yl)prop-2-en-1-one] | 64 nM
CN(c1nc(OC[C@@]23CCCN2C[C@H](F)C3)nc2c(F)c(-c3cccc4cccc(C#N)c34)ncc12)[C@@H]1CCN(C(=O)/C(F)=C/c2nccs2)C1 [Compound 114, 8-(8-fluoro-4-(((R)-1-((Z)-2-fluoro-3-(thiazol-2-yl)acryloyl)pyrrolidin-3-yl)(methyl)amino)-2-(((2R, 7aS)-2-fluorotetrahydro-1H-pyrrolizin-7a(5H)-yl)methoxy)pyrido[4,3-d]pyrimidin-7-yl)-1-naphthonitrile] | 719 nM
C#Cc1cccc2cccc(-c3nc(OC)c4c(N5CCN(C(=O)/C(F)=C/c6nccs6)CC5)nc(OC[C@@]56CCCN5C[C@H](F)C6)nc4c3F)c12 [Compound 110, (Z)-1-(4-(7-(8-ethynylnaphthalen-1-yl)-8-fluoro-2-(((2R, 7aS)-2-fluorotetrahydro-1H-pyrrolizin-7a(5H)-yl)methoxy)-5-methoxypyrido[4,3-d]pyrimidin-4-yl)piperazin-1-yl)-2-fluoro-3-(thiazol-2-yl)prop-2-en-1-one] | 180 nM
